Results reported in PMC4459817, “Vasculotide reduces endothelial permeability and tumor cell extravasation in the absence of binding to or agonistic activation of Tie2” (EMBO Molecular Medicine, 2015).

Test system: SN12luc lung metastases in YFP-SCID mice
Assay: experimental SN12luc lung metastasis model (IV)
Assay type: in vivo, human SN12luc cells in YFP-SCID mice
Details: VT 250 ng/2 days or 400 ng/2 days; Fig3E–G; 50DPI imaging
From the text: Figure 3 Vasculotide has no effect on experimental liver metastases from a colon cancer cell line (HT29^luc), nor on experimental lung metastases from a renal cancer cell line (SN12^luc) • A–D An experiment where HT29^luc tumor cells were implanted intravenously into YFP-SCID mice. (A) Kaplan–Meier survival analysis. (B) Quantification of total metastatic burden in the liver and lymphatics, at 35 days post-implantation (DPI), from whole-body bioluminescent imaging (C). (D) Photograph of typical liver metastases. • E–G An experiment where SN12^luc tumor cells were implanted intravenously into YFP-SCID mice. (E) Kaplan–Meier survival analysis. (F) Quantification of total metastatic burden at 50DPI, mostly within the lungs, from whole-body bioluminescent imaging (G). […]
For in vivo BI: Mice were injected intraperitoneally with 150mg/kg luciferin (Promega) 10 minutes prior to and anesthetized with isofluorane just before luminescent pseudocolor imaging (uniform settings: CCD camera locked at -105 °C, exposure=60s, f/1, subject size=1.5cm, bin=8, FOV=23.2cm, full image correction) using the IVIS 200 Imaging System (Caliper/PerkinElmer). Using the Living Image software (v2.50.1, Xenogen), weekly images were analyzed under uniform color range on grayscale photographic overlay. […]

For “CHHHRHSF [Vasculotide, 4-armed maleimide-functionalized polyethylene glycol (PEG) backbone to link together four cysteine-capped T7 peptides, that is, CHHHRHSF]”, which lung metastases response is on record?
Its lung metastases response is “did not respond to VT treatment”.
